Laboratory results as given in patent publication US20160137630A1, “INDUCTION OF GATA2 BY HDAC1 AND HDAC2 INHIBITORS” (ACETYLON PHARMACEUTICALS, INC., priority 2014, published 2016).

How the values were obtained:
[1] = system: human bone marrow-derived CD34+ cells; experiment: viability of expanded CD34+ cells; type: cell-based; conditions: 2 days of treatment
Text: This possibility was first tested by measuring the viability of expanded human bone marrow-derived CD34+ cells, composed of primitive and more differentiated hematopoietic progenitors of multiple lineages, following 2 days of treatment with compound.

[2] = system: erythroblasts derived from CD34+ cells isolated from human bone marrow; experiment: QRT-PCR time course of mRNA expression during erythroid differentiation; type: cell-based
Text: Gata2 mRNA was induced while Gata1 mRNA was unaffected. The culture system was as described by Sankaran et al., “Human fetal hemoglobin expression is regulated by the developmental stage-specific repressor BCL11A”, Science, vol. 322(5909), pp. 1839-42 (2008).
Gata2 mRNA was induced while Gata1 mRNA was unaffected. The culture system as described by Bradner et al., PNAS, vol. 107(28), pp. 12617-22 (2010). […]
The cells were then differentiated by exposure to either vehicle or Compound 001. RNA was measured at days 0, 2, 3, 4, 5, 6, and 8.
Gata1 increased and Gata2 decreased in control cells during the 5 days differentiation period, a result consistent with the known expression pattern of these genes during erythropoiesis (FIG. 1C).

[3] = blood cell counts in monkeys; type: in vivo, cynomolgus monkey; conditions: monkey
Procedure: B. Cynomolgus monkey were dosed once daily by oral gavage for 5 consecutive days at 0 mg/kg, 25 mg/kg, or 75 mg/kg per dose (FIG. 25B). Sampling as described in ‘A’.
For each individual monkey, white blood cell counts were expressed relative to their predose level (time=day 0). Points are the average of n=3 animals with error bars showing the standard deviation.

[4] = 1 μM for 6 days, culture conditions supporting late erythroblasts, FIG. 1C
[5] = 1 μM for 8 days, culture conditions supporting early erythroblasts, FIG. 1B

With `Nc1ccc(-c2cccs2)cc1NC(=O)c1ccc2nc(N3CCNCC3)ccc2c1` [Compound 001, N-(2-amino-5-(thiophen-2-yl)phenyl)-2-(piperazin-1-yl)quinoline-6-carboxamide] the “fold less cytotoxic than Entinostat” value [1] was 10 fold, the IC50 ([1]; Homo sapiens, 48 h, FIG. 19A) was 45 µM and the “Gata1 mRNA” value [2, 4] was “unaffected”. The “Gata2 mRNA” value [2, 4] was “induced”, the “Gata1 mRNA” value [2, 5] was “unaffected” and the “Gata2 mRNA” value [2, 5] was “induced”. For the same compound, the “Klf1 mRNA” value ([2]; QPCR, FIG. 1N) was “unaffected”, the “decrease in Bcl11a mRNA” value ([2]; QRT-PCR time course) was 2 fold and the “decrease in Sox6 mRNA” value ([2]; QRT-PCR time course) was 10 fold. For the same compound, the “increase in Gata2 mRNA” value ([2]; QRT-PCR time course) was 8 fold, the “Gata2 increase relative to control cells” value ([2]; day 2) was 2 fold and the “Gata2 increase relative to control cells” value ([2]; day 5) was 5 fold. The RBC or platelets [3] was “no detected affect”, the “time of peak white blood cell suppression after the last dose” value [3] was 1 days and the “time to recovery of white blood cell counts to baseline after the last dose” value [3] was 5 days. For the same compound, the white blood cells ([3]; 25 or 75 mg/kg for 5 days) was “reversible suppression”.
